Measurements reported in patent publication US20250387458A1, “COACTIVE COMBINATIONS OF ANTIMICROBIALS WITH DISPERSINB” (KANE BIOTECH INC., priority 2020, published 2025).
“Also recorded” adds a separate entry of the source. Counter-ions that a name gives are not always drawn. Positions of bridges follow the written chain, without caps; N, C: chain ends. Non-standard residues stand in square brackets, D forms with d. Residues, ends and D or L forms follow the SMILES beside them. ξ: configuration not given here. *: point of attachment. X1 = CC[C@H](C)CCCCC(=O)*; dDab = NCC[C@@H](N)C(=O)O; Dab = NCC[C@H](N)C(=O)O; ξDab = NCCC(N)C(=O)O

Legend:
S. epidermidis biofilm [1] = test: Inactivation of biofilm embedded bacteria using liquid buffer formulation (Method 1), S. epidermidis; type: cell-based, Staphylococcus epidermidis; conditions: for Biofilm inactivation: buffer formulation, antimicrobial tested with DspB; for Effect of DspB on activity of the antimicrobial against biofilm embedded S. epidermidis: buffer, antimicrobial plus DspB vs antimicrobial alone, P<0.05
Protocol: (§1) Method 1: Method to Test Inactivation of Biofilm Embedded Bacteria Using Liquid Buffer Formulation
(§2) S. epidermidis or E. coli biofilm were each grown in 96-well plate and washed three times to remove planktonic cells. Then biofilm was treated using 50 mM phosphate or citrate buffer, (no treatment control), buffer solutions containing DspB at 10-200 μg/ml, buffer solution containing antimicrobial alone, and buffer solution DspB plus antimicrobial for varying exposure times (10 min-3 h). After treatments, biofilm embedded bacteria was dispersed, diluted serially and plated on Tryptic soy agar plates. Data was analyzed using ANOVA and Tukey's test.

S. epidermidis biofilm [2] = test: Biofilm dispersal by DspB gel formulations (Method 5); type: cell-based, Staphylococcus epidermidis; conditions: for Biofilm dispersal of gel containing DspB and antimicrobial compared with gel containing DspB alone: PF127 gel, 20 μg/ml DspB
Protocol: Method 5: Method to Test Biofilm Dispersal by DspB Gel Formulations
S. epidermidis biofilm was grown in 96-well plate and washed three times to remove planktonic cells. Then biofilm was treated using different DspB formulations appropriate treatment duration (10 min-1 h). After treatments, gels were removed and washed 3 times with sterile distilled water to remove excess gel and dispersed biofilm. Remaining biofilms in 96-well plates were stained using Crystal violet and unbound crystal violet was removed by washing the wells with sterile water, the biofilm bound crystal violet was eluted using 33% acetic acid, and the absorbance at 620 nm was taken using a microwell plate reader.
Gels containing DspB and selected concentrations of antimicrobials were formulated in 50 mM phosphate buffer or citrate buffer containing 16% PF127. DspB gel and antimicrobial gel were mixed together and incubated at 37° C. for 2 h. Biofilm dispersal was performed at 0 and 2 h using biofilm dispersal assay (Method 5). Blank gel, DspB gel and antimicrobial gels were included as controls.

E. coli biofilm = test: Inactivation of biofilm embedded bacteria using liquid buffer formulation (Method 1), E. coli; type: cell-based, Escherichia coli; conditions: antimicrobial plus DspB vs antimicrobial alone
Protocol: as §1, §2

S. epidermidis biofilm [3] = test: Compatibility between antimicrobials or antibiotics and DspB, biofilm dispersal assay in buffer (Method 3); type: cell-based, Staphylococcus epidermidis; conditions: for Biofilm dispersal when DspB and antimicrobial were added together: 20 μg/ml DspB, mixture used at 0 and 2 h, 10 min treatment
Protocol: Method 3: Method to Test Compatibility Between Antimicrobials or Antibiotics and DspB Using Biofilm Dispersal Assay
S. epidermidis biofilm was grown in 96-well plate and washed three times using sterile water to remove planktonic cells. Antimicrobials or antibiotics and DspB formulations were prepared in 50 mM phosphate or citrate buffer and stored at 37° C. for 2 h and used for treating biofilm at 0 and 2 h. Biofilm was treated using antimicrobials or antibiotics and DspB formulations for 10 min. After treatments, solutions were removed and washed 3 times to remove dispersed biofilm. Remaining biofilms in 96-well plates were stained using Crystal violet, unbound crystal violet was removed by washing the wells with sterile water, the biofilm bound crystal violet was eluted using 33% acetic acid, and the absorbance at 620 nm was taken using a microwell plate reader. Percent biofilm removal was calculated. Data was analyzed using ANOVA and Tukey's test.

DspB [4] = test: Compatibility between antimicrobials or antibiotics and DspB in gel, enzymatic assay (Method 6); type: biochemical, Aggregatibacter actinomycetemcomitans; conditions: for Enzymatic activity of DspB in the presence of the antimicrobial compared with DspB control: P≤0.05, carvacrol and cinnamaldehyde at 0-30 min, chloroxylenol at 5, 10, 20 and 60 min
Protocol: Method 6: Method to Test Compatibility Between Antimicrobials or Antibiotics and DspB in Gel Using Enzymatic Assay
DspB gel containing 200 μg/ml DspB, 16% […] (PF127), 50 mM Phosphate buffer or citrate, 100 mM NaCl, pH 5.9, and 2× concentrated antimicrobial agent/antibiotics in 16% Poloxamer 405, 50 mM Phosphate buffer, 100 mM NaCl, pH 5.9 were mixed in equal proportions. 4×5 μL aliquots were withdrawn at 0, 5, 10, 20, 30, 60, and 120 min for measurement of DspB enzymatic activity. DspB enzymatic activity was measured using β-N-acetylglucosaminidase assay kit from Sigma (product code CS0780) in 96-well microtiter plate following the manufacturer's instructions. The plate was incubated for 30 minutes before terminating the reaction. Data analysis was done in Excel. Student T test (paired) was performed for each time point separately using DspB activity in mixture and in control sample as two set of variables. […]

DspB [5] = test: Compatibility between antimicrobials or antibiotics and DspB, enzymatic assay in buffer (Method 4); type: biochemical, Aggregatibacter actinomycetemcomitans
Protocol: Method 4: Method to Test Compatibility Between Antimicrobials or Antibiotics and DspB Using Enzymatic Assay
DspB (200 μg/mL) and antimicrobial agent/antibiotic stocks were prepared in respective buffers. 10 mM paranitrophenol (PNP) in 400 mM sodium carbonate, and the buffer (same DspB stock) was used as the standard solution, and negative control, respectively. DspB stock and antimicrobial stock were mixed in equal proportions, and then 4×5 μl samples were taken at defined time points (0, 5, 10, 20, 30, 60, and 120 min) and used to measure the DspB enzyme activity. DspB enzymatic activity was measured using β-N-Acetylglucosaminidase assay kit from Sigma (product code CS0780) in 96-well microtiter plate following the manufacturer's instructions. The plate was incubated for 30 minutes before terminating the reaction. Data analysis was done in Excel. Student T test (paired) was performed for each time point separately using DspB activity in mixture and in control sample as two set of variables.

[6] = gel formulation, 100 μg/ml DspB

Nisin
Biofilm inactivation (S. epidermidis biofilm [1]): <0.5 log log CFU

COc1ccc2cc3[n+](cc2c1OC)CCc1cc2c(cc1-3)OCO2 [Berberine hydrochloride]
Effect of DspB on activity of the antimicrobial against biofilm embedded S. epidermidis (S. epidermidis biofilm [1]; hydrochloride): no synergistic activity
Effect of DspB on activity of the antimicrobial against biofilm embedded S. epidermidis (S. epidermidis biofilm [1]; listed as berberine hydrochloride, hydrochloride): did not enhance activity; also recorded: antagonism

Cc1ccc(C(C)C)c(O)c1 [Thymol]
Biofilm inactivation (S. epidermidis biofilm [1]): >5 log log CFU
Effect of DspB on activity of the antimicrobial against biofilm embedded S. epidermidis (S. epidermidis biofilm [1]): enhanced

O=C/C=C/c1ccccc1 [Cinnamaldehyde]
Biofilm dispersal of gel containing DspB and antimicrobial compared with gel containing DspB alone (S. epidermidis biofilm [2]): similar
Effect of DspB on activity of the antimicrobial against biofilm embedded E. coli (E. coli biofilm; P<0.05): enhanced
Biofilm dispersal when DspB and antimicrobial were added together (S. epidermidis biofilm [3]; buffer): ≥ 78%
Synergy or compatibility with DspB, E: enzymatic (DspB [4]; [6]): E: synergy
Enzymatic activity of DspB in the presence of the antimicrobial compared with DspB control (DspB [4]; wound gel): Higher enzymatic activity
Effect of DspB on activity of the antimicrobial against biofilm embedded S. epidermidis (S. epidermidis biofilm [1]): enhanced

C/C(=C\C(=O)OCCCCCCCCC(=O)O)C[C@@H]1OC[C@H](C[C@@H]2O[C@H]2[C@@H](C)[C@H](C)O)[C@@H](O)[C@H]1O [Mupirocin]
Synergy or compatibility with DspB, E: enzymatic (DspB [4]; [6]): E: synergy
DspB activity in the presence of the antimicrobial, enzymatic assay (DspB [4]; wound gel, for up to 2 h, relative to 100 μg/mL DspB control): > 100%

CNC1C(O)[C@@H](O[C@H]2C(N)C[C@H](N)C(O[C@H]3OC([C@@H](C)N)CCC3N)C2O)OC[C@]1(C)O (some centres unmarked) [Gentamicin sulfate]
Biofilm dispersal of gel containing DspB and antimicrobial compared with gel containing DspB alone (S. epidermidis biofilm [2]): similar
Synergy or compatibility with DspB, E: enzymatic (DspB [4]; [6]): E: compatible

CCCCCCCCN=c1ccn(CCCCCCCCCCn2ccc(=NCCCCCCCC)cc2)cc1.Cl.Cl [Octenidine dihydrochloride, octenidine dihydrochloride]
Biofilm dispersal of gel containing DspB and antimicrobial compared with gel containing DspB alone (S. epidermidis biofilm [2]): similar
Effect of DspB on activity of the antimicrobial against biofilm embedded E. coli (E. coli biofilm; P<0.05, dihydrochloride): enhanced activity
Effect of DspB on activity of the antimicrobial against biofilm embedded E. coli (E. coli biofilm; P<0.05, listed as ODC, dihydrochloride): enhanced
Biofilm dispersal when 20 μg/ml DspB was mixed with the antimicrobial (S. epidermidis biofilm [3]; biofilms treated for 10 min, data not presented): no biofilm dispersal was observed
Biofilm dispersal when DspB and antimicrobial were added together for 2 h (S. epidermidis biofilm [3]; buffer, 100 μg/ml DspB, 0.01% ODC): minimal biofilm dispersal
Synergy or compatibility with DspB, E: enzymatic (DspB [4]; [6]): E: compatible
Biofilm inactivation (S. epidermidis biofilm [1]): >5 log log CFU
Effect of DspB on activity of the antimicrobial against biofilm embedded S. epidermidis (S. epidermidis biofilm [1]; dihydrochloride): enhanced activity
Effect of DspB on activity of the antimicrobial against biofilm embedded S. epidermidis (S. epidermidis biofilm [1]; listed as ODC, dihydrochloride): enhanced

Cc1cc(O)cc(C)c1Cl [Chloroxylenol]
Biofilm dispersal when DspB and antimicrobial were added together (S. epidermidis biofilm [3]; buffer): ≥ 74%
Biofilm inactivation (S. epidermidis biofilm [1]): >5 log log CFU

O=C(O)C=Cc1ccccc1 [Cinnamic acid]
Biofilm inactivation (S. epidermidis biofilm [1]): <0.5 log log CFU
Effect of DspB on activity of the antimicrobial against biofilm embedded S. epidermidis (S. epidermidis biofilm [1]): did not show any enhancement

Cc1ncc([N+](=O)[O-])n1CCO [Metronidazole]
Biofilm dispersal of gel containing DspB and antimicrobial compared with gel containing DspB alone (S. epidermidis biofilm [2]): similar
Synergy or compatibility with DspB, E: enzymatic (DspB [4]; [6]): E: compatible

CCCCC(CC)CNC(=N)NC(=N)NCCCCCCNC(=N)NC(=N)NCC(CC)CCCC (centres unmarked) [Alexidine, Alexidine dihydrochloride]
Biofilm inactivation (S. epidermidis biofilm [1]): >5 log log CFU
Effect of DspB on activity of the antimicrobial against biofilm embedded S. epidermidis (S. epidermidis biofilm [1]): enhanced

Benzalkonium chloride
Synergy or compatibility with DspB, M: microbiological (biofilm dispersal assay; biofilm inactivation not tested) (S. epidermidis biofilm [2]): M: compatible
Synergy or compatibility with DspB, E: enzymatic (DspB [5]): E: no synergy
Synergy or compatibility with DspB, M: microbiological (biofilm dispersal assay; biofilm inactivation not tested) (S. epidermidis biofilm [3]): M: no synergy
Synergy or compatibility with DspB, E: enzymatic (DspB [4]): E: compatible

CCCCCCCCCCCCCCCC[n+]1ccccc1.[Cl-] [Cetylpyridinium chloride]
Synergy or compatibility with DspB, E: enzymatic (DspB [5]): E: no synergy
Synergy or compatibility with DspB, E: enzymatic (DspB [4]): E: compatible

C=CC(C)(O)CCC=C(C)CCC=C(C)C (centres unmarked) [Nerolidol]
Biofilm inactivation (S. epidermidis biofilm [1]): <0.5 log log CFU

Cc1ccc(C(C)C)cc1O [Carvacrol]
Synergy or compatibility with DspB, M: microbiological (biofilm dispersal assay; biofilm inactivation not tested) (S. epidermidis biofilm [2]): M: compatible
Biofilm dispersal of gel containing DspB and antimicrobial compared with gel containing DspB alone (S. epidermidis biofilm [2]): similar
Effect of DspB on activity of the antimicrobial against biofilm embedded E. coli (E. coli biofilm; P<0.05): enhanced
Synergy or compatibility with DspB, E: enzymatic (DspB [5]): E: synergy
Biofilm dispersal when DspB and antimicrobial were added together (S. epidermidis biofilm [3]; buffer): ≥ 73%
Synergy or compatibility with DspB, E: enzymatic (DspB [4]): E: synergy
Enzymatic activity of DspB in the presence of the antimicrobial compared with DspB control (DspB [4]; wound gel): Higher enzymatic activity
Biofilm inactivation (S. epidermidis biofilm [1]): >5 log log CFU
Effect of DspB on activity of the antimicrobial against biofilm embedded S. epidermidis (S. epidermidis biofilm [1]): enhanced

CC(=O)CC/C=C(\C)CCC=C(C)C [Geranyl acetone]
Biofilm inactivation (S. epidermidis biofilm [1]): <0.5 log log CFU

CC[C@H](C)CCCCC(=O)N[C@@H](CCN)C(=O)N[C@H](C(=O)NC(CCN)C(=O)N[C@H]1CCNC(=O)[C@H]([C@@H](C)O)NC(=O)[C@H](CCN)NC(=O)[C@H](CCN)NC(=O)[C@H](CC(C)C)NC(=O)[C@@H](Cc2ccccc2)NC(=O)[C@@H](CCN)NC1=O)[C@@H](C)O (some centres unmarked) [Polymyxin B sulfate] (X1-[Dab]T[ξDab][Dab][dDab][dF]L[Dab][Dab]T; lactam 4-C)
Biofilm dispersal of gel containing DspB and antimicrobial compared with gel containing DspB alone (S. epidermidis biofilm [2]): similar
Synergy or compatibility with DspB, E: enzymatic (DspB [4]; [6]): E: compatible

BisEDT
Biofilm inactivation (S. epidermidis biofilm [1]): <1 log log CFU

CC(C)=CCC/C(C)=C\CO [Nerol]
Biofilm inactivation (S. epidermidis biofilm [1]): <0.5 log log CFU
